Key:
[1] = system: wheat; assay: Test C postemergence; format: in vivo, Triticum aestivum; details: 10 days
Procedure, shortened: (§1)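 Pre: seeds in loam/sand, directed soil spray. Post: 1–2 leaf plants, 2–10 cm. Cmpd in non-phytotoxic solvent + surfactant. Greenhouse 10 d; visual rating vs untreated, 0 = none, 100 = complete control.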

[2] = system: barnyardgrass; assay: Test C preemergence; format: in vivo, Echinochloa crusgalli; details: for Barnyardgrass plant response rating: preemergence; for Plant response rating, Barnyardgrass: Preemergence
Procedure, shortened: as §1

[3] = system: soybean; assay: Test C preemergence; format: in vivo, Glycine max; details: for Soybean plant response rating: preemergence, 0 to 100 scale (0 no effect, 100 complete control)
Procedure, shortened: as §1

[4] = system: barnyardgrass; assay: Test D flooded paddy test; format: in vivo, Echinochloa crus-galli; details: 250 g ai/ha, applied to paddy water, visual rating after 13 to 14 days, scale 0 to 100 (0 no effect, 100 complete control)
Procedure, shortened: (§2)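 Plants at the 2-leaf stage were grown in pots flooded to 3 cm, and compound was applied directly into the paddy water, with depth kept throughout. After 13–14 days in a greenhouse, injury was rated visually against untreated controls on a 0–100 scale (100 = complete control); a dash means not tested.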

[5] = system: pigweed, palmer; assay: Test C preemergence; format: in vivo, Amaranthus palmeri; details: for Pigweed, Palmer plant response rating: preemergence, 0 to 100 scale (0 no effect, 100 complete control)
Procedure, shortened: as §1

[6] = system: kochia; assay: Test C preemergence; format: in vivo, Bassia scoparia; details: for Kochia plant response rating: preemergence, 0 to 100 scale (0 no effect, 100 complete control)
Procedure, shortened: as §1

[7] = system: oat, wild; assay: Test C postemergence; format: in vivo, Avena fatua; details: 10 days
Procedure, shortened: as §1

[8] = system: soybean; assay: Test C postemergence; format: in vivo, Glycine max; details: 10 days
Procedure, shortened: as §1

[9] = system: ragweed; assay: Test C preemergence; format: in vivo, Ambrosia artemisiifolia; details: for Ragweed plant response rating: preemergence, 0 to 100 scale (0 no effect, 100 complete control)
Procedure, shortened: as §1

[10] = system: ryegrass, Italian; assay: Test C preemergence; format: in vivo, Lolium multiflorum; details: for Ryegrass, Italian plant response rating: preemergence, 0 to 100 scale (0 no effect, 100 complete control)
Procedure, shortened: as §1

[11] = system: corn; assay: Test C postemergence; format: in vivo, Zea mays; details: 10 days
Procedure, shortened: as §1

[12] = system: wheat; assay: Test C preemergence; format: in vivo, Triticum aestivum; details: for Wheat plant response rating: preemergence, 0 to 100 scale (0 no effect, 100 complete control)
Procedure, shortened: as §1

[13] = system: kochia; assay: Test C postemergence; format: in vivo, Bassia scoparia; details: 10 days
Procedure, shortened: as §1

[14] = system: ryegrass, Italian; assay: Test C postemergence; format: in vivo, Lolium multiflorum; details: 10 days
Procedure, shortened: as §1

[15] = system: sedge, umbrella; assay: Test D flooded paddy test; format: in vivo, Cyperus difformis; details: 250 g ai/ha, applied to paddy water, visual rating after 13 to 14 days, scale 0 to 100 (0 no effect, 100 complete control)
Procedure, shortened: as §2

[16] = system: rice; assay: Test D flooded paddy test; format: in vivo, Oryza sativa; details: 250 g ai/ha, applied to paddy water, visual rating after 13 to 14 days, scale 0 to 100 (0 no effect, 100 complete control)
Procedure, shortened: as §2

[17] = system: barnyardgrass; assay: Test C postemergence; format: in vivo, Echinochloa crusgalli; details: 10 days
Procedure, shortened: as §1

[18] = system: green foxtail; assay: Test C postemergence; format: in vivo, Setaria viridis; details: 10 days
Procedure, shortened: as §1

[19] = system: ragweed; assay: Test C postemergence; format: in vivo, Ambrosia artemisiifolia; details: 10 days
Procedure, shortened: as §1

[20] = system: blackgrass; assay: Test C postemergence; format: in vivo, Alopecurus myosuroides; details: 10 days
Procedure, shortened: as §1

[21] = system: galium; assay: Test C postemergence; format: in vivo, Galium aparine; details: 10 days
Procedure, shortened: as §1

[22] = system: corn; assay: Test C preemergence; format: in vivo, Zea mays; details: for Corn plant response rating: preemergence, 0 to 100 scale (0 no effect, 100 complete control)
Procedure, shortened: as §1

[23] = system: oat, wild; assay: Test C preemergence; format: in vivo, Avena fatua; details: for Oat, Wild plant response rating: preemergence, 0 to 100 scale (0 no effect, 100 complete control)
Procedure, shortened: as §1

[24] = system: pigweed, palmer; assay: Test C postemergence; format: in vivo, Amaranthus palmeri; details: 10 days
Procedure, shortened: as §1

[25] = system: green foxtail; assay: Test C preemergence; format: in vivo, Setaria viridis; details: for Foxtail, Green plant response rating: preemergence, 0 to 100 scale (0 no effect, 100 complete control)
Procedure, shortened: as §1

[26] = system: ducksalad; assay: Test D flooded paddy test; format: in vivo, Heteranthera limosa; details: 250 g ai/ha, applied to paddy water, visual rating after 13 to 14 days, scale 0 to 100 (0 no effect, 100 complete control)
Procedure, shortened: as §2

[27] = system: blackgrass; assay: Test C preemergence; format: in vivo, Alopecurus myosuroides; details: for Blackgrass plant response rating: preemergence; for Plant response rating, Blackgrass: Preemergence
Procedure, shortened: as §1

[28] = system: horseweed; assay: Test C postemergence; format: in vivo, Erigeron canadensis; details: 10 days
Procedure, shortened: as §1

[29] = 500 g ai/ha, postemergence, 0 to 100 scale (0 no effect, 100 complete control)
[30] = Postemergence, 125 g ai/ha, 0 to 100 scale (0 no effect, 100 complete control)
[31] = 500 g ai/ha, 0 to 100 scale (0 no effect, 100 complete control)
[32] = 125 g ai/ha, 0 to 100 scale, 0 no effect, 100 complete control
[33] = Preemergence, 125 g ai/ha, 0 to 100 scale, 0 no effect, 100 complete control
[34] = 125 g ai/ha, postemergence, 0 to 100 scale, 0 no effect, 100 complete control
[35] = 500 g ai/ha, visual rating after 10 days, 0 to 100 scale (0 no effect, 100 complete control)
[36] = Test C, 125 g ai/ha, 0 to 100 scale (0 no effect, 100 complete control)
[37] = Postemergence, 500 g ai/ha, visual 0 to 100 scale (0 no effect, 100 complete control)

CNc1ncn(-c2cccc(C(=O)N3C[C@H](C)Oc4c(C)cccc43)c2)n1 [Compound 337]
Plant response rating, Wheat [1, 29]: 20
Plant response rating, Wheat [1, 30]: 10
Barnyardgrass plant response rating [2, 31]: 90
Plant response rating, Barnyardgrass [2, 32]: 30
Soybean plant response rating ([3]; 500 g ai/ha): 40
Plant response rating, Soybean [3, 33]: 0
Plant response rating, Barnyardgrass (Flood) [4]: 0
Pigweed, Palmer plant response rating ([5]; 500 g ai/ha): 100
Plant response rating, Pigweed, Palmer [5, 33]: 0
Kochia plant response rating ([6]; 500 g ai/ha): 80
Plant response rating, Kochia [6, 33]: 0
Plant response rating, Oat, Wild [7, 29]: 30
Plant response rating, Oat, Wild [7, 30]: 10
Plant response rating, Soybean [8, 29]: 100
Plant response rating, Soybean [8, 30]: 90
Ragweed plant response rating ([9]; 500 g ai/ha): 50
Plant response rating, Ragweed [9, 33]: 30
Ryegrass, Italian plant response rating ([10]; 500 g ai/ha): 90
Plant response rating, Ryegrass, Italian [10, 33]: 50
Plant response rating, Corn [11, 29]: 60
Plant response rating, Corn [11, 30]: 10
Wheat plant response rating ([12]; 500 g ai/ha): 10
Plant response rating, Wheat [12, 33]: 0
Plant response rating, Kochia [13, 29]: 70
Plant response rating, Kochia [13, 30]: 50
Plant response rating, Ryegrass, Italian [14, 29]: 70
Plant response rating, Ryegrass, Italian [14, 30]: 20
Plant response rating, Sedge, Umbrella (Flood) [15]: 0
Plant response rating, Rice (Flood) [16]: 0
Plant response rating, Barnyardgrass [17, 29]: 60
Plant response rating, Barnyardgrass [17, 30]: 10
Plant response rating, Foxtail, Green [18, 29]: 40
Plant response rating, Foxtail, Green [18, 30]: 30
Plant response rating, Ragweed [19, 29]: 60
Plant response rating, Ragweed [19, 30]: 20
Plant response rating, Blackgrass [20, 29]: 90
Plant response rating, Blackgrass [20, 30]: 40
Plant response rating, Galium [21, 29]: 90
Plant response rating, Galium [21, 30]: 40
Corn plant response rating ([22]; 500 g ai/ha): 40
Plant response rating, Corn [22, 33]: 0
Oat, Wild plant response rating ([23]; 500 g ai/ha): 20
Plant response rating, Oat, Wild [23, 33]: 0
Plant response rating, Pigweed, Palmer [24, 29]: 70
Plant response rating, Pigweed, Palmer [24, 30]: 20
Foxtail, Green plant response rating ([25]; 500 g ai/ha): 100
Plant response rating, Foxtail, Green [25, 33]: 90
Plant response rating, Ducksalad (Flood) [26]: 0
Blackgrass plant response rating [27, 31]: 50
Plant response rating, Blackgrass [27, 32]: 20
Plant response rating, Horseweed [28, 29]: 20
Plant response rating, Horseweed [28, 30]: 0

COC[C@H]1CN(C(=O)c2cc(-n3cnc(C4CCC4)n3)ccc2C)c2cccc(Cl)c2O1 [Compound 267]
Plant response rating, Wheat [1, 34]: 20
Plant response rating, Barnyardgrass [2, 35]: 80
Barnyardgrass plant response rating [2, 36]: 60
Soybean plant response rating ([3]; 500 g ai/ha): 90
Soybean plant response rating ([3]; Test C, 125 g ai/ha): 90
Plant response rating, Barnyardgrass (Flood) [4]: 35
Pigweed, Palmer plant response rating ([5]; 500 g ai/ha): 100
Pigweed, Palmer plant response rating ([5]; Test C, 125 g ai/ha): 90
Kochia plant response rating ([6]; 500 g ai/ha): 90
Kochia plant response rating ([6]; Test C, 125 g ai/ha): 90
Plant response rating, Oat, Wild [7, 34]: 0
Plant response rating, Soybean [8, 34]: 100
Ragweed plant response rating ([9]; 500 g ai/ha): 60
Ragweed plant response rating ([9]; Test C, 125 g ai/ha): 40
Ryegrass, Italian plant response rating ([10]; 500 g ai/ha): 90
Ryegrass, Italian plant response rating ([10]; Test C, 125 g ai/ha): 70
Plant response rating, Corn [11, 34]: 50
Plant response rating, Corn [11, 37]: 90
Wheat plant response rating ([12]; 500 g ai/ha): 30
Wheat plant response rating ([12]; Test C, 125 g ai/ha): 20
Plant response rating, Kochia [13, 34]: 90
Plant response rating, Ryegrass, Italian [14, 34]: 60
Plant response rating, Sedge, Umbrella (Flood) [15]: 98
Plant response rating, Rice (Flood) [16]: 25
Plant response rating, Barnyardgrass [17, 34]: 60
Plant response rating, Barnyardgrass [17, 37]: 90
Plant response rating, Foxtail, Green [18, 34]: 70
Plant response rating, Foxtail, Green [18, 37]: 90
Plant response rating, Ragweed [19, 34]: 70
Plant response rating, Blackgrass [20, 34]: 30
Plant response rating, Blackgrass [20, 37]: 50
Plant response rating, Galium [21, 34]: 100
Plant response rating, Galium [21, 37]: 100
Corn plant response rating ([22]; 500 g ai/ha): 10
Corn plant response rating ([22]; Test C, 125 g ai/ha): 0
Oat, Wild plant response rating ([23]; 500 g ai/ha): 60
Oat, Wild plant response rating ([23]; Test C, 125 g ai/ha): 40
Plant response rating, Pigweed, Palmer [24, 34]: 90
Foxtail, Green plant response rating ([25]; 500 g ai/ha): 100
Foxtail, Green plant response rating ([25]; Test C, 125 g ai/ha): 100
Plant response rating, Ducksalad (Flood) [26]: 50
Plant response rating, Blackgrass [27, 35]: 60
Blackgrass plant response rating [27, 36]: 20
Plant response rating, Horseweed [28, 34]: 60
Plant response rating, Horseweed [28, 37]: 50
